“And” between values parts separate entries of the source, which are not always exact repeats. Identical values can stand only once.
Assays:
rat cortical neurons = assay: Evoked and spontaneous action potential activity of cultured rat cortical neurons, current-clamp; type: cell-based
[1] = tested on: electroshock-induced seizures; assay: Maximal electroshock seizure (MES) test in ICR mice; type: in vivo
Description: All animals were treated in accordance with the Guide for the Care and Use of Laboratory Animals as adopted and promulgated by the U.S. National Institutes of Health. The procedures followed for experimentation and maintenance of the animals were approved by the animal research ethics committee of Tel Aviv University and in accordance with the Guide for the Care and Use of Laboratory Animals (1996. National Academy of Sciences, Washington D.C). […] electroshock were induced in adult mice by means of two transcorneal electrodes delivering an alternative current of 50 mA at 60 Hz for 0.2 sec using rodent shocker (Hugo Sachs Electronik, type 221). […] The tested compounds were dissolved in 0.9% saline were administered intraperitoneally either 30 minutes or 2 hours before the electroshock was performed. Animals failing to show tonic hind limb extension were scored as protected and were expressed in percentage.
Five groups of 10 ICR mice each received intraperitoneally saline (control) or meclofenamic acid (Compound 1) at 25 mg/kg, 50 mg/kg, 100 mg/kg and 150 mg/kg and were subjected 30 minutes later to an electric shock (50 mA, 0.2 second duration, 60 Hz).
In view of the strong depressing activity of Compound 6 on cortical neurons, the anticonvulsant activity in mice subjected to seizures produced by electroshock was examined, using the MES test described above. Compound 6 dissolved in saline was injected intraperitoneally (in a volume of 10 ml/kg) at doses ranging from 6 mg/kg to 20 mg/kg to ICR adult mice and its anticonvulsant activity was compared with saline. Twenty minutes after drug administration, seizures were produced by electroshock (50 mA, 0.2 second duration, 60 Hz).

KCNQ2/3 channels = target: T1, KCNQ2/3 channels (Homo sapiens, UniProt O43525+O43526); assay: KCNQ2/3 current in transfected CHO cells, whole-cell patch-clamp; type: cell-based
T1 construct: expressed in transfected cells; host or cells: CHO cells

COX (Cyclooxygenase) = assay: COX activity assay in C-26 cells (PGE2 radioimmunoassay); type: cell-based; conditions: for IC50: C-26 cells
Description: C-26 cells were plated on 24-well plates using RPMI medium. Different concentrations of the tested compound were added thereto and the cells were incubated for 30 minutes at 37° C. 30 μM exogenic arachidonic acid was then added and incubation was continued for 20 minutes (37° C.), so as to allow the cells to synthesize PGE2. Indomethacin was added thereafter (10 μM), to stop and completely block the activity. Then, the upper solution was removed into clean 24-wells. To the remained cells 100 μl NaOH (1M) were added to induce cytolysis, and the cells were left for later protein measurement. The solution removed to the new 24-well was used for a radioimmunoassay. The COX activity was estimated by calculating the ng PGE2/mg protein parameter.

M-current = target: T2, M-current (Rattus norvegicus, UniProt O88943+O88944); assay: Native M-current of cultured rat cortical neurons, voltage-clamp; type: cell-based; conditions: cortical neurons, from −50 mV to −70 mV
T2 construct: the native M-current from pyramidal-like neurons was recorded; endogenous in cells; host or cells: primary cortical neurons from Sprague Dawley rat embryos (E18)

[2] = tested on: hippocampal pyramidal neurons; assay: Spontaneous EPSCs of hippocampal pyramidal neuron cultures, voltage-clamp; type: cell-based; conditions: 10 μM
Description: To further determine the synaptic site of M-channel activation by Compound 6, its effects on spontaneous excitatory postsynaptic currents (EPSCs) that could be recorded from dense networks of hippocampal pyramidal neuron cultures was tested.
In FIGS. 30B and 30C, burst activity before (control), in the presence (Compound 6) and after (Wash) application of 5 μM (FIG. 30B) and 10 μM (FIG. 30C) Compound 6, as recorded at the voltage clamp mode is shown. In FIG. 30D, burst activity before (control) and in the presence of 25 μM Linopirdine is shown. In FIG. 30E, the normalized number of bursts appeared in 180 seconds time period for 5 μM (left panel), 10 μM (mid panel) of Compound 6 and 25 μM linopirdine (right panel) are shown. The holding potential was −70 mV. n=5-6.
Thus, using the voltage-clamp configuration of the patch-clamp technique, spontaneous EPSCs were isolated at −70 mV (holding potential) in the presence of 10 μM bicuculline and 10 μM picrotoxin to block GABAA receptor-mediated inhibitory postsynaptic currents. As is shown in FIG. 30A, under control conditions, the frequency of EPSCs is variable depending of the density of the hippocampal culture, ranging from 0.4 Hz to 2 Hz. […] However, the majority of the EPSCs measured at −70 mV under the experimental recording conditions are mediated by AMPA receptors as most of the currents are blocked by 10 μM NBQX, leaving only a small fraction EPSC sensitive to the NMDA receptor blocker DL-AP5 (FIG. 30A).

small DRG neurons = assay: Spiking activity of DRG neurons, current-clamp; type: cell-based, mouse; conditions: 15 μM; 75 pA, 400 ms
Description: Dorsal root ganglion (DRG) neurons were dissected from 2-4 days-old ICR mice that were decapitated. DRGs were placed in Hank's balanced saline solution (HBSS) and were prepared by enzymatic dissociation. Briefly, cells were incubated for 30 minutes in 5 mg/ml dispase (Sigma), 2 mg/ml collagenase type 1A (Sigma) and 0.1 mg/ml DNase (Invitrogen/Gibco) in calcium and magnesium-free HBSS, and the ganglia were thereafter mechanically triturated with a firepolished glass Pasteur pipette. The ganglia were then centrifuged for 5 minutes at 80×g and resuspended in DMEM supplemented with 2 mM L-glutamine, 16.5 mM NaCO3, 6 g/l glucose, 5 ml penicillin/streptomycin and 10% fetal calf serum. For electrophysiological recording, dissociated neurons were plated on 13 mm glass coverslips previously coated with poly-D-lysine (1 mg/ml) and laminin (10 μg/ml) and were used after 2-6 days in culture.
For current measurements in CHO cells, recordings were performed 40 hours following transfection, using the whole-cell configuration of the patch-clamp technique [Hamill et al., Nature 294: 462-464 (1981)]. Signals were amplified using an Axopatch 200B patch-clamp amplifier (Axon Instruments, Foster City, Calif., USA), sampled at 2 kHz and filtered at 800 Hz via a 4-pole Bessel low pass filter. Data were acquired using pClamp 8.1 software (Axon Instruments, Foster City, Calif., USA) and an Elonex Pentium III computer in conjunction with a DigiData 1322A interface (Axon Instruments, Foster City, Calif., USA). The patch pipettes were pulled from borosilicate glass (Warner Instrument. Corp., Hamden, Conn., USA) with a resistance of 2-5 MΩ and were filled with (in mM): 130 KCl, 1 MgCl2, 5 K2ATP, 5 EGTA, 10 HEPES, adjusted with KOH at pH 7.4 (290 mOsm). The external solution contained (in [mM]): 140 NaCl, 4 KCl, 1.8 CaCl2, 1.2 MgCl2, 11 glucose, 5.5 HEPES, adjusted with NaOH at pH 7.4 (310 mOsm). Series resistances (3-13 MΩ) were compensated (75-90%) and periodically monitored. […]

KCNQ2/Q3 = KCNQ2/Q3 (Homo sapiens, UniProt O43525+O43526); assay: Opener potency on KCNQ2/Q3 by leftward shift of half-activation potential (ΔV50) versus concentration, Hill fit; type: cell-based; design: expressed in transfected cells

SMILES: O=C(O)Cc1ccccc1Nc1c(Cl)cccc1Cl [Compound 2, diclofenac]
- effect on evoked action potentials (rat cortical neurons; 25 μM): no spike could be evoked
- effect on spontaneous spiking activity (rat cortical neurons; 25 μM): quickly and reversibly depressed
- % Protection ([1]; 25 mg/kg i.p., 30 minutes before electroshock): 10 (10) %
- % Protection ([1]; 50 mg/kg i.p., 30 minutes before electroshock, listed as Diclofenac): 64 (11) %
- % Protection ([1]; 50 mg/kg i.p., 30 minutes before electroshock, listed as diclofenac): 64%
- % Protection ([1]; 50 mg/kg i.p., 2 hours before electroshock): 50 (4) %
- % Protection ([1]; 100 mg/kg i.p., 30 minutes before electroshock): 92 (12) %
- % Protection ([1]; 100 mg/kg i.p., 2 hours before electroshock): 83 (6) %
- % Protection ([1]; 200 mg/kg i.p., 30 minutes before electroshock): 100 (15) %
- % Protection ([1]; 200 mg/kg i.p., 2 hours before electroshock): 100 (6) %
- ED50 ([1]; Mus musculus, intraperitoneal, 30 minutes or 2 hours before electroshock, 25-200 mg/kg, read-out: ED50 for suppression of tonic extension induced by MES): 43 mg/kg

SMILES: Cc1c(Cl)cccc1Nc1ccccc1C(=O)NCCOCCO [Compound 3]
- increase of the current amplitude (KCNQ2/3 channels; 25 μM, train protocol, stepped to −50 mV): up to 299±47%
- opener action on recombinant KCNQ2/3 channels (in words) (KCNQ2/3 channels; CHO cells): potent KCNQ2/3 potassium channel opening properties
- IC50 (COX (Cyclooxygenase)): 113 nM and 114 nM

SMILES: O=C(NCCOCCO)c1ccccc1Nc1cccc(C(F)(F)F)c1 [Compound 4]
- increase of the current amplitude (KCNQ2/3 channels; 50 μM, stepped from −85 mV to −40 mV): > 1.5 fold
- increase of the current amplitude (KCNQ2/3 channels; 50 μM, stepped from −85 mV to −50 mV): more than 4 fold
- opener action on recombinant KCNQ2/3 channels (in words) (KCNQ2/3 channels; CHO cells): potent KCNQ2/3 channel opener
- effect on evoked and spontaneous cortical neuron activity (rat cortical neurons): depress
- effect on spontaneous spiking activity (rat cortical neurons; 20 μM): markedly depressed
- negative shift in the threshold of M-current activation (M-current): approximately 20 mV
- IC50 (COX (Cyclooxygenase)): > 30000 nM

SMILES: Cc1cccc(Nc2ccccc2C(=O)NCCOCCO)c1C [Compound 5]
- effect on current amplitude (KCNQ2/3 channels; 15 μM, at −40 and −50 mV): enhances the current amplitude
- leftward shift in the voltage-dependence of KCNQ2/3 activation (KCNQ2/3 channels; 25 μM, CHO cells): ~8 mV
- V50 of KCNQ2/3 activation with compound (KCNQ2/3 channels; 25 μM, CHO cells, control −30.9±4.1 mV): −38.3±1.9 mV
- effect on deactivation kinetics of KCNQ2/3 channels (KCNQ2/3 channels; CHO cells): slowed down
- effect on evoked and spontaneous cortical neuron activity (rat cortical neurons): depress
- effect on evoked action potentials (rat cortical neurons; 25 μM): reversibly inhibited
- negative shift in the threshold of M-current activation (M-current): approximately 20 mV
- COX inhibition activity (in words) (COX (Cyclooxygenase)): do not exhibit COX inhibition activity
- IC50 (COX (Cyclooxygenase)): 10300 nM

SMILES: O=C(Cc1ccccc1Nc1c(Cl)cccc1Cl)OCCOCCO [Compound 7]
- opener action on recombinant KCNQ2/3 channels (in words) (KCNQ2/3 channels; CHO cells): potent KCNQ2/3 channel opener
- effect on evoked and spontaneous cortical neuron activity (rat cortical neurons): depress
- effect on evoked and spontaneous spiking activity of cortical neurons (rat cortical neurons; 20 μM): very potent inhibitory activity
- negative shift in the threshold of M-current activation (M-current): approximately 20 mV
- IC50 (COX (Cyclooxygenase)): 11 nM and 11.7 nM

SMILES: COCCOCCOC(=O)Cc1ccccc1Nc1c(Cl)cccc1Cl [Compound 8]
- opener action on recombinant KCNQ2/3 channels (in words) (KCNQ2/3 channels; CHO cells): only a weak opener action
- effect on evoked and spontaneous cortical neuron activity (rat cortical neurons): depress
- effect on evoked and spontaneous spiking activity of cortical neurons (rat cortical neurons; low concentrations (10 μM evoked, 5 μM spontaneous)): potent inhibitory activity

SMILES: CN(CCO)C(=O)Cc1ccccc1Nc1c(Cl)cccc1Cl [Compound 9]
- opener action on recombinant KCNQ2/3 channels (in words) (KCNQ2/3 channels; CHO cells): only a weak opener action
- effect on evoked and spontaneous spiking activity of cortical neurons (rat cortical neurons; 20 μM): inhibitory activity

SMILES: CCn1c(=O)[nH]c2ccccc21 [Compound 10, 1-ethyl benzimidazolone]
- increase of the current amplitude (KCNQ2/3 channels; 100 μM, train protocol, cells stepped to −30 mV): up to 57%

SMILES: O=C1N(c2ccccc2)c2ccccc2C1(Cc1ccncc1)Cc1ccncc1 [linopirdine]
- effect on spontaneous spiking activity (rat cortical neurons; 10 μM): significantly enhanced the frequency of spontaneous spiking
- frequency of EPSCs [2]: up to 278±41 % of control

SMILES: O=C1NC(=O)C(c2ccccc2)(c2ccccc2)N1 [phenyloin]
- protection from hind limb extension ([1]; 20 mg/kg intraperitoneal, 30 minutes before electroshock): fully prevented hind limb extension

SMILES: CCOC(=O)Nc1ccc(NCc2ccc(F)cc2)cc1N [retigabine, N-(2-amino-4-(4-fluorobenzylamino)-phenyl)carbamic acid ethyl ester]
- effect on trains of evoked spikes (small DRG neurons): Very similar results
- EC50 (KCNQ2/Q3): 2000 ± 1300 nM
- Hill coefficient ηH (KCNQ2/Q3; Hill fit, compound alone): 1.20±0.30
- maximum ΔV50 (KCNQ2/Q3; increasing concentrations co-exposed with 25 μM meclofenamic acid): −32±4 mV

SMILES: CCCC(CCC)C(=O)[O-].[Na+] [sodium valproate]
- protection from hind limb extension ([1]; 500 mg/kg intraperitoneal, 30 minutes before electroshock): fully prevented hind limb extension

Reference: patent US8618169B2, “Derivatives of N-phenylanthranilic acid and 2-benzimidazolone as potassium channel and/or neuron activity modulators” (Ramot at Tel-Aviv University Ltd., priority 2002, dated 2013)
